In patent US20020197244A1, “Compositions and methods for regulating phagocytosis and ICAM-1 expression” (priority 1998, published 2002):

B1: STI: Soybean trypsin inhibitor, a serine protease inhibitor capable of affecting the PAR-2 pathway (protein, UniProt P01070 25-205, looked up)
Trypsin inhibitor A: DFVLDNEGNPLENGGTYYILSDITAFGGIRAAPTGNERCPLTVVQSRNELDKGIGTIISSPYRIRFIAEGHPLSLKFDSFAVIMLCVGIPTEWSVVEDLPEGPAVKIGENKDAMDGWFRLERVSDDEFNNYKLVFCPQQAEDDKCGDIGISIDHDDGTRRLVVSKNKPLVVQFQKLDKESL

Assays:
melanocytes = test: Fluorescent microsphere ingestion by melanocytes; type: cell-based; details: which do not express PAR-2
[1] = system: fibroblast cell line 92-3T3; test: Fluorescent microsphere ingestion by fibroblasts; type: cell-based; details: vs untreated fibroblasts; FIG. 3
Method: In this example, human primary keratinocytes or the human keratinocyte cell line HaCaT were used as in vitro model systems to study the effect of PAR-2 regulators on keratinocyte phagocytosis. The human primary keratinocytes used are commercially available from Clonetics (San Diego, Calif.). Cells were plated on chamber slides, at 2 chambers/slide and 60,000 cells/chamber. Cells were treated once daily, for two or three days, with Compound I (1μM), SLIGRL (10μM), or vehicle (Phosphate-buffered saline, (“PBS”) from Gibco-BRL (Gaithersburg, Md.). After two or three days of exposure to the test compounds, cells were exposed to Nile-red or FITC fluorescent microspheres, 1 μm in diameter, 50 microspheres/cell, for two hours at 37° C. Microspheres were from Molecular Probes (Eugene, Oreg.), and were processed according to manufacturer's instructions. Following that treatment, cells were incubated with 15% Fetal Bovine Serum (“FBS”, from Gibco-BRL), for 15 minutes at 37° C. and rinsed with PBS. At that time, chambers were separated from the slides, and the slides were covered with glycerol and coverslips. Fluorescent microscopy was performed using a Zeiss Axiovert 35 or a Nikon Optiphot-2 microscope.
The experiment described in Example 1 was repeated using the fibroblast cell line 92-3T3 (obtained from the ATCC in Rockville, Md.). Fibroblasts are not known to posses phagocytic ability.

[2] = system: human skin, grafted on immuno-suppressed mice; test: Pigmentation of human skin grafted on immuno-suppressed mice; type: in vivo
Method: Human white facial skin samples were grafted on immuno-suppressed mice using standard techniques. About six weeks later grafts of the same individual, grafted on different mice, were treated with vehicle (ethanol: propylene glycol 70:30), or with 50 μM SLIGRL. Treatment was performed daily, 5 days/week. Darkening of the SLIGRL-treated grafts was visually observed during the last weeks of treatment (see FIG. 7A). On day 66, the animals were sacrificed and their skins were analyzed histologically.
The same experiment was repeated with black human breast skin samples grafted on immuno-suppressed mice. Grafts of the same individual were treated with vehicle (GDL liposomes) or with 1% STI. GDL liposomes were prepared as set forth in Niemiec, et al., with the exception of the following changes: the non-ionic liposomal formulation contained glycerol dilaurate (Emulsynt GDL, ISP Van Dyk)/cholesterol (Croda)/polyoxyethylene-10-stearyl ether (Brij76, ICI)/polyoxyethylene-9-lauryl ether, at ratio of 37.5:12.5:33.3:16.7. Hepes buffer, 0.05M, pH 7.4 (Gibco-BRL of Gaithersburg, Md.) was used as the aqueous phase in the preparation of the liposomes.

human age spots = test: Lightening of human age spots, topical treatment; type: in vivo; details: STI, 1%, in liposomes (20 mg/ml), twice a day, 8 weeks
Method: An individual with three age spots on the dorsum of […] hand was treated for eight weeks, twice a day, as follows. The proximal age spot was treated with placebo, containing 20 mg/ml of liposomes. The median age spot was not treated. The distal age spot was treated with STI, 1%, in liposomes (20 mg/ml). GDL liposomes were prepared as set forth in Niemiec, et al., with the exception of the following changes. The non-ionic liposomal formulation contained glycerol dilaurate (Emulsynt GDL, ISP Van Dyk)/cholesterol (Croda)/polyoxyethylene-10-stearyl ether (Brij76, ICI)/polyoxyethylene-9-lauryl ether, as at ratio of 37.5:12.5:33.3:16.7. Hepes buffer, 0.05M, pH 7.4 (Gibco-BRL of Gaithersburg, Md.) was used as the aqueous phase in the preparation of the liposomes. UV and visible light digital pictures were taken at times of 0, 4 and 8 weeks of treatment. L* (brightness) values were calculated from the images using Adobe Photoshop.
FIG. 11 is a composite of four pictures. The left panel is a visible light picture of the hand, before (upper) and after (lower) 8 weeks of treatment. At this orientation, the proximal age spot is placebo-treated, the median age spot is untreated, and the distal age spot is STI-treated.

Molecule	microsphere ingestion (melanocytes)	number of ingested beads [1]	visual appearance of grafts ([2]; white facial skin grafts, 50 μM SLIGRL topical daily, 5 days/week, last weeks of treatment, FIG. 7A)	melanin in F&M-stained sections ([2]; white facial skin grafts, 50 μM SLIGRL, day 66, FIG. 7B)	pigmentation in F&M-stained skin sections ([2]; black breast skin grafts, 1% STI in GDL liposomes, FIG. 7C)	increase in L* (brightness) (human age spots; calculated from images) [L* units]	age spot appearance (human age spots; one individual, FIG. 11)
SLIGRL [reference compound]	no inducible effect on microsphere ingestion	increased the number of ingested beads	Darkening	increase in melanin			
B1					reduce pigmentation in human skin	15	became lighter
